Assay results published in the NIST ThermoML archive (doi:10.1021/je300405a).

Conditions: Liquid; for speed of sound: Pulse-echo method; for mass density: Vibrating tube method

CCCCCCCCCC(=O)OC [methyl decanoate]
Conditions | mass density [kg/m3] | speed of sound [m/s]
283.15 K, 101.3 kPa | – | 1362.6
283.15 K, 10000 kPa | – | 1408.9
283.15 K, 20000 kPa | – | 1452.2
283.15 K, 30000 kPa | – | 1493.2
283.15 K, 40000 kPa | – | 1531.7
283.15 K, 50000 kPa | – | 1568
283.15 K, 60000 kPa | – | 1602.6
283.15 K, 70000 kPa | – | 1634.5
283.15 K, 80000 kPa | – | 1666.4
283.15 K, 90000 kPa | – | 1696.9
283.15 K, 100000 kPa | – | 1726.9
283.15 K, 110000 kPa | – | 1755.2
283.15 K, 120000 kPa | – | 1783.4
283.15 K, 130000 kPa | – | 1809.5
283.15 K, 140000 kPa | – | 1835.9
293.15 K, 101.3 kPa | 872.05 | –
293.15 K, 10000 kPa | 878.88 | –
293.15 K, 20000 kPa | 885.04 | –
293.15 K, 30000 kPa | 890.91 | –
293.15 K, 40000 kPa | 896.46 | –
293.15 K, 50000 kPa | 901.66 | –
293.15 K, 60000 kPa | 906.63 | –
293.15 K, 70000 kPa | 911.3 | –
293.15 K, 80000 kPa | 915.52 | –
293.15 K, 90000 kPa | 920.05 | –
293.15 K, 100000 kPa | 924.3 | –
303.15 K, 101.3 kPa | 863.6 | 1287.7
303.15 K, 10000 kPa | 870.96 | 1339.2
303.15 K, 20000 kPa | 877.43 | 1385.8
303.15 K, 30000 kPa | 883.54 | 1429.6
303.15 K, 40000 kPa | 889.26 | 1470.3
303.15 K, 50000 kPa | 894.61 | 1508.7
303.15 K, 60000 kPa | 899.63 | 1544.9
303.15 K, 70000 kPa | 904.55 | 1580.2
303.15 K, 80000 kPa | 909.11 | 1614.1
303.15 K, 90000 kPa | 913.59 | 1646.1
303.15 K, 100000 kPa | 917.87 | 1676.9
303.15 K, 110000 kPa | – | 1706.8
303.15 K, 120000 kPa | – | 1735.1
303.15 K, 130000 kPa | – | 1762.8
303.15 K, 140000 kPa | – | 1789.2
303.15 K, 150000 kPa | – | 1815.2
303.15 K, 170000 kPa | – | 1864.9
303.15 K, 190000 kPa | – | 1912.7
303.15 K, 210000 kPa | – | 1957.6
313.15 K, 101.3 kPa | 855.85 | –
313.15 K, 10000 kPa | 863.12 | –
313.15 K, 20000 kPa | 869.91 | –
313.15 K, 30000 kPa | 876.23 | –
313.15 K, 40000 kPa | 882.19 | –
313.15 K, 50000 kPa | 887.77 | –
313.15 K, 60000 kPa | 893.04 | –
313.15 K, 70000 kPa | 898.12 | –
313.15 K, 80000 kPa | 902.9 | –
313.15 K, 90000 kPa | 907.5 | –
313.15 K, 100000 kPa | 911.9 | –
323.15 K, 101.3 kPa | 847.65 | 1214.8
323.15 K, 10000 kPa | 855.36 | 1269.1
323.15 K, 20000 kPa | 862.49 | 1319.3
323.15 K, 30000 kPa | 869.02 | 1365.7
323.15 K, 40000 kPa | 875.03 | 1409
323.15 K, 50000 kPa | 880.76 | 1449.5
323.15 K, 60000 kPa | 886.55 | 1487.8
323.15 K, 70000 kPa | 891.71 | 1524
323.15 K, 80000 kPa | 896.69 | 1558.3
323.15 K, 90000 kPa | 901.4 | 1591.2
323.15 K, 100000 kPa | 905.81 | 1623.3
323.15 K, 110000 kPa | – | 1653.9
323.15 K, 120000 kPa | – | 1684.6
323.15 K, 130000 kPa | – | 1711.9
323.15 K, 140000 kPa | – | 1739.6
323.15 K, 150000 kPa | – | 1765.9
323.15 K, 170000 kPa | – | 1817
323.15 K, 190000 kPa | – | 1864.8
323.15 K, 210000 kPa | – | 1910.9
333.15 K, 101.3 kPa | 839.36 | –
333.15 K, 10000 kPa | 847.25 | –
333.15 K, 20000 kPa | 854.44 | –
333.15 K, 30000 kPa | 861.45 | –
333.15 K, 40000 kPa | 867.94 | –
333.15 K, 50000 kPa | 873.98 | –
333.15 K, 60000 kPa | 879.63 | –
333.15 K, 70000 kPa | 885.02 | –
333.15 K, 80000 kPa | 890.12 | –
333.15 K, 90000 kPa | 894.95 | –
333.15 K, 100000 kPa | 899.64 | –
343.15 K, 101.3 kPa | 830.82 | 1142.8
343.15 K, 10000 kPa | 839.54 | 1202.4
343.15 K, 20000 kPa | 847.61 | 1255.9
343.15 K, 30000 kPa | 854.58 | 1304.9
343.15 K, 40000 kPa | 861.37 | 1350.5
343.15 K, 50000 kPa | 867.59 | 1393.5
343.15 K, 60000 kPa | 873.44 | 1433.7
343.15 K, 70000 kPa | 879.04 | 1471.7
343.15 K, 80000 kPa | 884.27 | 1508.2
343.15 K, 90000 kPa | 889.44 | 1541.7
343.15 K, 100000 kPa | 894.26 | 1574.1
343.15 K, 110000 kPa | – | 1606
343.15 K, 120000 kPa | – | 1636.2
343.15 K, 130000 kPa | – | 1665.9
343.15 K, 140000 kPa | – | 1694
343.15 K, 150000 kPa | – | 1721.2
343.15 K, 170000 kPa | – | 1773.2
343.15 K, 190000 kPa | – | 1822
343.15 K, 210000 kPa | – | 1868.7
353.15 K, 101.3 kPa | 822.35 | –
353.15 K, 10000 kPa | 831.43 | –
353.15 K, 20000 kPa | 839.8 | –
353.15 K, 30000 kPa | 847.35 | –
353.15 K, 40000 kPa | 854.31 | –
353.15 K, 50000 kPa | 860.82 | –
353.15 K, 60000 kPa | 866.96 | –
353.15 K, 70000 kPa | 872.65 | –
353.15 K, 80000 kPa | 878.11 | –
353.15 K, 90000 kPa | 883.27 | –
353.15 K, 100000 kPa | 888.25 | –
363.15 K, 101.3 kPa | 814.51 | –
363.15 K, 10000 kPa | 823.75 | 1138.5
363.15 K, 20000 kPa | 832.39 | 1195.9
363.15 K, 30000 kPa | 840.33 | 1247.9
363.15 K, 40000 kPa | 847.71 | 1296.3
363.15 K, 50000 kPa | 854.36 | 1341.1
363.15 K, 60000 kPa | 860.65 | 1382.7
363.15 K, 70000 kPa | 866.47 | 1421.6
363.15 K, 80000 kPa | 872.03 | 1458.4
363.15 K, 90000 kPa | 877.31 | 1493.8
363.15 K, 100000 kPa | 882.47 | 1527.4
363.15 K, 110000 kPa | – | 1559.7
363.15 K, 120000 kPa | – | 1590.9
363.15 K, 130000 kPa | – | 1620.7
363.15 K, 140000 kPa | – | 1649.4
363.15 K, 150000 kPa | – | 1677.2
363.15 K, 170000 kPa | – | 1730.6
363.15 K, 190000 kPa | – | 1780.4
363.15 K, 210000 kPa | – | 1827.2
373.15 K, 101.3 kPa | 805.43 | –
373.15 K, 10000 kPa | 816.05 | –
373.15 K, 20000 kPa | 825.16 | –
373.15 K, 30000 kPa | 833.45 | –
373.15 K, 40000 kPa | 841.07 | –
373.15 K, 50000 kPa | 848.03 | –
373.15 K, 60000 kPa | 854.82 | –
373.15 K, 70000 kPa | 860.9 | –
373.15 K, 80000 kPa | 866.94 | –
373.15 K, 90000 kPa | 872.3 | –
373.15 K, 100000 kPa | 877.6 | –
383.15 K, 101.3 kPa | 797.49 | –
383.15 K, 10000 kPa | 808.37 | 1077.4
383.15 K, 20000 kPa | 818.07 | 1138.6
383.15 K, 30000 kPa | 826.67 | 1193.5
383.15 K, 40000 kPa | 834.58 | 1244.5
383.15 K, 50000 kPa | 841.72 | 1291.3
383.15 K, 60000 kPa | 848.65 | 1334.9
383.15 K, 70000 kPa | 855.07 | 1375.4
383.15 K, 80000 kPa | 861.06 | 1414.2
383.15 K, 90000 kPa | 866.74 | 1450.6
383.15 K, 100000 kPa | 872.09 | 1485.3
383.15 K, 110000 kPa | – | 1518.9
383.15 K, 120000 kPa | – | 1550.9
383.15 K, 130000 kPa | – | 1581.2
383.15 K, 140000 kPa | – | 1610.8
383.15 K, 150000 kPa | – | 1641
383.15 K, 170000 kPa | – | 1692.7
383.15 K, 190000 kPa | – | 1743
383.15 K, 210000 kPa | – | 1791.1
393.15 K, 101.3 kPa | 788.67 | –
393.15 K, 10000 kPa | 800.06 | –
393.15 K, 20000 kPa | 810.12 | –
393.15 K, 30000 kPa | 819.15 | –
393.15 K, 40000 kPa | 827.46 | –
393.15 K, 50000 kPa | 834.97 | –
393.15 K, 60000 kPa | 842.04 | –
393.15 K, 70000 kPa | 848.64 | –
393.15 K, 80000 kPa | 854.73 | –
393.15 K, 90000 kPa | 860.61 | –
393.15 K, 100000 kPa | 866.13 | –
403.15 K, 10000 kPa | – | 1017.7
403.15 K, 20000 kPa | – | 1083.2
403.15 K, 30000 kPa | – | 1141.7
403.15 K, 40000 kPa | – | 1194.7
403.15 K, 50000 kPa | – | 1242.9
403.15 K, 60000 kPa | – | 1288.1
403.15 K, 70000 kPa | – | 1330.6
403.15 K, 80000 kPa | – | 1370.3
403.15 K, 90000 kPa | – | 1407.7
403.15 K, 100000 kPa | – | 1442.8
403.15 K, 110000 kPa | – | 1476.6
403.15 K, 120000 kPa | – | 1509.7
403.15 K, 130000 kPa | – | 1541.7
403.15 K, 140000 kPa | – | 1571.6
403.15 K, 150000 kPa | – | 1600.1
403.15 K, 170000 kPa | – | 1655.5
403.15 K, 190000 kPa | – | 1706.6
403.15 K, 210000 kPa | – | 1754.5
